{
  "source": "paper PMC6269737",
  "about": "“Effect of Honokiol on Cytochrome P450 and UDP-Glucuronosyltransferase Enzyme Activities in Human Liver Microsomes” (Molecules, 2013)",
  "key": {"CYP2A6": {"biological_target": "T1, CYP2A6 (Homo sapiens, UniProt P11509)", "T1 sequence (P11509 1-494)": "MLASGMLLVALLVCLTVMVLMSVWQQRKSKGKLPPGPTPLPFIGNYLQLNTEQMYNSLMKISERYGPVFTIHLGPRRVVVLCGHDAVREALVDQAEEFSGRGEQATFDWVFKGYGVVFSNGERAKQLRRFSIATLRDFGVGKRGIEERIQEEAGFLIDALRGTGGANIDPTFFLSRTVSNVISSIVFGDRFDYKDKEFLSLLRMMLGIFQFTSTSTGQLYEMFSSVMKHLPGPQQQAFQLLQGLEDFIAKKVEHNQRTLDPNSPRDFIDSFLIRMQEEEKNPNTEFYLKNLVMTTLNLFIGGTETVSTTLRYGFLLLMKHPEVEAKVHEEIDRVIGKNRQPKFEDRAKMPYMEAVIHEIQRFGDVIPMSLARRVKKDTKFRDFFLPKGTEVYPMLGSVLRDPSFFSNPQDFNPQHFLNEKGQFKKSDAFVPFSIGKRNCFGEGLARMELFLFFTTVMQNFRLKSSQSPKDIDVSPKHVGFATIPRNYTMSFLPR", "conditions": "microsomes", "description": "The inhibitory potential (IC50 values) of honokiol on CYP activities was evaluated in pooled human liver microsomes using liquid chromatography-tandem mass spectrometry (LC-MS/MS). […] Honokiol was dissolved in acetonitrile. […] After a 3 min preincubation at 37 °C, the reactions were initiated by addition of an NADP generating system and incubated for 15 min at 37 °C in a shaking water bath. The reaction was then stopped by placement of the tubes on ice and adding 100 μL of ice-cold methanol containing internal standards (^13C2, ^15N-acetaminophen for acetaminophen and N-deethylamodiaquine, and d9-1-hydroxybufuralol for 4-hydroxydiclofenac, 4-hydroxybupropion, 7-hydroxycoumarin, 4-hydroxymephenytoin, 1'-hydroxybufuralol, and 1'-hydroxymidazolam). The incubation mixtures were then centrifuged at 13,000 × g for 4 min. All incubations were performed in triplicate, and average values were used. […]\nThe metabolites formed from the seven CYP cocktail substrates were simultaneously determined according to our previously described LC-MS/MS method with minor modification; the concentration of 4-hydroxybupropion for CYP2B6 activity was quantified separately by LC-MS/MS. […] Quantification was performed by selected reaction monitoring (SRM) of [M+H]^+ ions and the related product ions for each metabolite. […]"}, "UGT1A4": {"biological_target": "T2, UGT1A4 (Homo sapiens, UniProt P22310)", "T2 sequence (P22310 29-534)": "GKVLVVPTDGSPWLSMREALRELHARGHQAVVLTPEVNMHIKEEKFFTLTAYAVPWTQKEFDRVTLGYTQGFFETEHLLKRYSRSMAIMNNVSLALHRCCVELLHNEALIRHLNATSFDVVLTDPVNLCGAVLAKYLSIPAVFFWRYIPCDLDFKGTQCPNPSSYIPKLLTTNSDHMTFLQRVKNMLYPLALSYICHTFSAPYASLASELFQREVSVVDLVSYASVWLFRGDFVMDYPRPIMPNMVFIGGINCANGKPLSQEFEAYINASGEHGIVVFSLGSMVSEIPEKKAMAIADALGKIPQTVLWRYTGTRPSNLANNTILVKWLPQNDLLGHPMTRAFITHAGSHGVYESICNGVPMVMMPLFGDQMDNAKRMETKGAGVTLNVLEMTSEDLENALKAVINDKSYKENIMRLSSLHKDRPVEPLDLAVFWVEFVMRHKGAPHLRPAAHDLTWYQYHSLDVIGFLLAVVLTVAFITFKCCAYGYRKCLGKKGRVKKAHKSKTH", "experiment": "UGT1A4-catalyzed trifluoperazine N-glucuronidation inhibition in pooled human liver microsomes", "format": "in vitro ADME", "conditions": "5 μM trifluoperazine, pooled HLM (H161)", "description": "(§1) The inhibitory potency (IC50 value) of honokiol on UGT1A1-catalyzed 17β-estradiol 3-glucuronidation, UGT1A4-catalyzed trifluoperazine glucuronidation, UGT1A9-catalyzed propofol glucuronidation, and UGT2B7-catalyzed azidothymidine glucuronidation activities was determined in pooled human liver microsomes by LC-MS/MS [48]. […] Reactions were initiated by the addition of UDPGA (final concentration, 5 mM), and incubations were carried out at 37 °C in a shaking water bath for 30 min. Reactions were terminated by adding 100 μL of ice-cold methanol containing an internal standard (500 ng/mL ezetimibe for 17β-estradiol 3-glucuronide and propofol glucuronide; 30 ng/mL meloxicam for trifluoperazine glucuronide and azidothymidine glucuronide). The incubation mixtures were then centrifuged at 13,000 × g for 4 min, followed by dilution of 30 μL of the supernatant with 70 μL of water. An aliquot (5 μL) was injected onto the LC-MS/MS. All incubations were performed in triplicate and the mean values were used. Glucuronides produced from UGT isoform-specific substrates were determined by LC-MS/MS [49].\n(§2) The apparent kinetic parameters for inhibitory potential (Ki values) were estimated from the fitted curves using Enzyme Kinetics Ver. 1.1 software (Systat Software Inc.)."}, "UGT2B7": {"biological_target": "T3, UGT2B7 (Homo sapiens, UniProt P16662)", "T3 sequence (P16662 24-529)": "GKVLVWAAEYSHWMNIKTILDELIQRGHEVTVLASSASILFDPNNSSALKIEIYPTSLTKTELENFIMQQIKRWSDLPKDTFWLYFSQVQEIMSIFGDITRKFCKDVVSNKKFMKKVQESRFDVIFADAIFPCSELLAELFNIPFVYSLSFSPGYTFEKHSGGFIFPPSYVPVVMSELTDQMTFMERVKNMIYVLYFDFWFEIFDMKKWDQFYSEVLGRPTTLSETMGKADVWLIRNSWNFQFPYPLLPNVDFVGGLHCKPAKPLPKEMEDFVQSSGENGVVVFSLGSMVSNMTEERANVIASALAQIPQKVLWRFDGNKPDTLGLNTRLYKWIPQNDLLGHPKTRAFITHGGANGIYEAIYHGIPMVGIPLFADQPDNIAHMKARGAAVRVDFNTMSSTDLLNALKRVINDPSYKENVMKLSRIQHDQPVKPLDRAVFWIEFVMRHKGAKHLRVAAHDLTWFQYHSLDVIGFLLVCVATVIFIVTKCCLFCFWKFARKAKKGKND", "experiment": "UGT2B7-catalyzed azidothymidine glucuronidation inhibition in pooled human liver microsomes", "format": "in vitro ADME", "conditions": "100 μM azidothymidine, pooled HLM (H161)", "description": "as §1, §2"}},
  "data": [
    {"smiles": "C=CCc1ccc(O)c(-c2ccc(O)c(CC=C)c2)c1", "note": "[honokiol, 2-(4-hydroxy-3-prop-2-enyl-phenyl)-4-prop-2-enyl-phenol]", "values": [
      {"measurement": "IC50 (μM) of honokiol, no preincubation", "setting": "CYP2A6", "value": "No inhibition"},
      {"measurement": "IC50 (μM) of honokiol, with preincubation", "setting": "CYP2A6", "value": "No inhibition"},
      {"measurement": "IC50", "setting": "UGT1A4", "value": 158, "unit": "µM"},
      {"measurement": "IC50", "setting": "UGT2B7", "value": 36.4, "unit": "µM"}
    ]}
  ]
}
